In US20030190368A1, “METHODS OF DIAGNOSIS AND TRIAGE USING CELL ACTIVATION MEASURES” (priority 1998, published 2003):

Key:
Format in all cases: cell-based
[1] = system: isolated naive human neutrophils; test: Pseudopod formation test: protease inhibitors against pancreatic homogenate-induced neutrophil activation; settings: for percent neutrophil pseudopod formation (activation) by rat pancreatic homogenate in presence of protease inhibitor: neutrophils preincubated 10 min with inhibitor (PMSF 1 mM; Complete 1 tablet/20 ml; Benzamidine 1150 μM; Futhan 0.1 mg/ml; aprotinin 20 μM), then homogenate 10 min, homogenate alone 85.1±11.5%
Description: (§1) For the pseudopod assay, venous blood is collected in heparinized tubes from healthy human volunteers and put on ice. It is important that heparin and not EDTA ([…]) be used as an anticoagulant, as the calcium-chelating properties of EDTA can affect neutrophil activation. […] Other chemicals for the Krebs-Henseleit buffer are from Fisher Scientific, Fair Lawn, N.J. The resuspended cells are then gently layered onto 2.5 ml of a 55% isotonic Percoll (Sigmal Chemical Company) solution and 2.5 ml of a 74% isotonic Percoll solution in deionized water. The suspension is centrifuged for 15 minutes at 600 G and the middle granulocyte layer is removed and resuspended in PBS to achieve a concentration of 10^6 neutrophils/ml. 100 μl aliquots of suspended neutrophils are added to 100 μl of test plasma or activating agent. This mixture is mixed and then incubated for 10 minutes at 27° C. After incubation 100 μl of 3% glutaraldehyde (Fisher Scientific) is added to stop the reaction. 100 μl of crystal violet in phosphate (pH: 7.4) buffer is then added to stain leukocyte nuclei on wet mount preparations. Freely suspended neutrophils with pseudopodia are identified by their segmented nuclei and the presence of cytoplasmic granules. One hundred neutrophils are counted. Cells with pseudopod projection greater than about 1 um are considered positive.
Rat homogenate was collected as described in detail in Example 5. Briefly, male Wistar rats (250-350 gm) were housed in a controlled environment and maintained on a standard pellet diet for at least three days before initiation of experimental procedures. Animals were cannulated via the femoral arteries and vein under general anesthesia using pentobarbital (50 mg/kg i.m.). The rats were exsanguinated and the heart, liver, spleen, small intestine, and pancreas removed. The organs were immediately washed and cleaned in cold 0.25 M sucrose solution. Then, the cleaned organs were vigorously homogenized in Krebs-Henseleit solution ([…]). Aliquots were filtered by centrifugation at 500 G for 10 min. Pancreatic homogenates were incubated for 2.5 hours at 38° C., stirred frequently. Incubated pancreatic homogenate as well as controls were tested against naive human donor neutrophils for pseudopod formation as described in Example 2.
To determine whether or not neutrophil activation by pancreatic homogenate is protease dependent, the pseudopod formation test was repeated by preincubation of isolated neutrophils with various protease inhibitors (50 μl) for 10 minutes followed by addition of pancreas homogenate (50 μl) and further incubation for 10 minutes. […] All protease inhibitors were the gift of Dr. Tony E. Hugli of The Scripps Clinic and Research Institute, with the exception of Complete™, an all-purpose protease inhibitor purchased from Boehringer Mannheim, Indianapolis, Ind. One of the components of Complete™ is EDTA (ethylenediaminetetra-acetic acid), a standard anti-coagulant and divalent cation chelator.
To determine whether the protease inhibitors were acting on the pancreatic homogenate or the neutrophils themselves, a new set of neutrophil pseudopod experiments was carried out. […] Appropriate controls were recorded as well as a positive control (10^−7 M fMLP) to determine the washed cells' ability to respond to stimuli. Formyl-methionyl-leucyl-phenylalanine (fMLP) was obtained from Sigma Chemical Company, St. Louis, Mo.

human neutrophils [2] = test: Neutrophil PAF inhibition experiments (pseudopod formation)
human neutrophils [3] = test: Lucigenin-enhanced superoxide chemiluminescence of human plasma / isolated neutrophils; settings: for superoxide chemiluminescence of isolated neutrophils alone (no plasma): neutrophils in PBS, fMLP 10^-6 M, PAF 10^-6, homogenate 1 ml; for chemiluminescence in cell-free plasma: plasma filtered 1 um; for plasma chemiluminescence activation by pancreatic proteases: trypsin 1000 U/ml, chymotrypsin 100 U/ml, 155×10^3 neutrophils/ml plasma
Description: Human blood was collected in heparinized Vacutainer tubes (10 ml) and centrifuged at 500 G for 10 minutes. Plasma was collected and 3 ml were mixed with lucigenin (N,N′-dimethyl-9,9′-bisacridinium […]) (Sigma Chemical CO., St. Louis, Mo.) (1 ml of a 1 mM stock solution in deinozed water, final concentration […], near optimal concentration as determined by Ohoi, et al (26)) for each measurement in small petri dishes (60 mm diameter). In later modifications of the test, a 25 mm diameter polyurethane disk was placed inside the petri dishes to reduce the vessel diameter, and subsequently, the reagent requirements to 1 ml plasma mixed with 0.75 ml lucigenin (1 mM stock solution) and only 100 μl of an activator. […] Six Vacutainer tubes were normally collected from healthy volunteers. This volume gives approximately 8 measurements using the original configuration (3 ml plasma/measurement) and up to 25 measurements with the modified system (1 ml/measurement). When measuring whole blood samples, 3 ml of whole blood were subsitituted for 3 ml of plasma.
A standard neutrophil isolation procedure was used as described in Example 2 or pseudopod formation tests. Human blood from healthy volunteers (approximately 60 ml) was collected in heparinized Vacutainer tubes and transferred to a 60 ml syringe where it was sedimented on ice for 40-60 minutes. It is important that heparin and not EDTA ([…]) be used as an antocoagulant, since the calcium-chelating properties of EDTA can suppress neutrophil activation. The neutrophil-rich plasma layer was collected and layered onto 3.5 ml Histopaque (Sigma Diagnostics, St. Louis, Mo.) in 12 ml polypropylene centrifuge tubes (17×100 mm, Falcon, Shrewsbury, Mass.) and centrifuged at 600 G for 20 minutes. The sedimented neutrophils and red blood cells were then gently resuspended in 2 ml PBS (phosphate buffer solution). The resuspeneded cells were carefully layered onto 2.5 ml of a 55% isotonic Percoll solution (Sigma Diagnostics, St. Louis, Mo.) and 2.5 ml of a 74% isotonic Percoll solution in deionized water. This suspension was centrifuged at 600 G for 15 minutes and the middle granulyte layer was removed and resuspended in PBS to achieve a concentration of 10^6 neutrophils/ml.
For standard plasma measurements (e.g., low molecular weight fractions and whole pancreatic homogenates) human blood from healthy volunteers (approximately 60 ml) was collected in heparinized Vacutainer tubes and centrifuged for 10 minutes at 500 g. The plasma layer, including the buffy coat was carefully decanted using a steril transfer pipette. This fraction was then warmed to room temperature and plasma measurements were obtained. Plasma was diluted with sterile saline to achieve a plasma neutrophil concentration of 120×10^3 neutrophil/ml.
For experiments with different plasma concentrations versus neotrophil activators, measurements were made using isolated neutrophils, isolated neutrophils in 10% and 30% autologous plasma, and neutrophil-free plasma (filtered with 1 um filter and verified by cell count).
Cell-free plasma was obtained by filtering sedimented plasma through a 1 um filter (Whatman 6780-2510, Swedesboro, N.J.). The filtered plasma was visually verified to be cell free by placing an aliquot on a microscope slide and examining in detail at 400×. For experiments with different percentages of added plasma, 5 ml total volumes were made consisting of 1 ml lucigenin (1 mM), 1 ml activator, and either 3 ml suspended neutrophils, 2 ml suspended neutrophils plus 1 ml cell-free plasma mixed in PBS necessary for either 10% or 30% total plasma concentration, or 3 ml cell-free plasma. Activators (1 ml) were added via an injection port to the mixture at time t=0 seconds. […]

[4] = system: isolated naive human neutrophils; test: Pseudopod formation test: neutrophil activation by organ homogenates, fractions and proteases; settings: for percent pseudopod formation, control solution incubated with the additive alone (no organ homogenate): Krebs-Henseleit control incubated with additive at the same concentration, control activation 10.5±2.5%; for direct neutrophil activation by proteases / zymogen fragments (in words): pseudopod formation
Description: as §1
The organ homogenization procedure was similar to the method of Lefer (Glenn et al. (1971) Circ Res 29:338-349, Lefer (1973) Am J. Physiol 224:824-831). Male Wistar rats (250-350 gm) were housed in a controlled environment and maintained on standard pellet diet for at least three days before initiation of experimental procedures. Animals were cannulated via the femoral arteries and vein under general anesthesia using phenobarbital (50 mg/kg i.m.) No heparin was injected other than that needed to ensure open catheter lines (10 U/ml plasma-Lyte). A central incision was made over the abdomen. The rats were exsanguinated and the heart, liver, spleen, small intestine, and pancreas were removed. In two animals a kidney and adrenal gland were removed as well. They were immediately washed and cleaned in cold 0.25 M sucrose solution. The cleaned organs were vigorously homogenized in Krebs-Henseleit solution (1:3 w/v). Homogenate was then further diluted in Krebs-Henseleit solution (1:2 v/v). Aliquots were filtered by centrifugation at 500 G for 10 min and a sample aliquot was stored at 4° C. until assayed. The other fraction was incubated for 2.5 hours at 38° C. with mild stirring and stored at 4° C. until assayed. Incubation of tissue homogenates for this time period at a moderate temperature enhances any enzymatic activity that may be necessary in order to produce a neutrophil activation product. The incubated and non-incubated organ homogenates as well as controls were tested against naive human donor leukocytes for pseudopod formation tests and on whole rat donor blood for the NBT assay. Pseudopod determination was carried out as described in Example 2 using isolated neutrophils in D-PAS combined with homogenate in a 4:1 ratio. Nitroblue tetrazolium reduction by leukocytes due to superoxide in rat homogenate assays was also tested using the NBT procedure described in Example 2, with the application of 25 μl of homogenate to donor blood. The NBT assays for porcine homogenate activity were measured using the slightly modified NBT protocol with the crystal violet stain, also detailed in Example 2. […]

Molecule: O=S(=O)(F)Cc1ccccc1 [PMSF, Phenylmethylsulfonyl fluoride]
- percent neutrophil pseudopod formation (activation) by rat pancreatic homogenate in presence of protease inhibitor [1]: 40.8±12.9%

Molecule: aprotinin
- percent neutrophil pseudopod formation (activation) by rat pancreatic homogenate in presence of protease inhibitor [1]: 51±17.2%

Molecule: Phospholipase A2: from bovine pancreas, also degrades PAF
- intrinsic effect on neutrophils (human neutrophils [2]; 1, 10, 20 U/ml): neutrophil stimulatory properties

Molecule: Cc1nnc2n1-c1sc3c(c1C(c1ccccc1Cl)=NC2)CC(C(=O)N1CCOCC1)C3 (centres unmarked) [WEB 2170]
- reduction of neutrophil activation by pancreatic or trypsin-incubated homogenates (human neutrophils [2]; 5 μM, 50 μM, 500 μM): largely ineffective

Molecule: CSCC[C@H](NC=O)C(=O)N[C@@H](CC(C)C)C(=O)N[C@@H](Cc1ccccc1)C(=O)O [fMLP, Formyl-methionyl-leucyl-phenylalanine]
- superoxide chemiluminescence of isolated neutrophils alone (no plasma) (human neutrophils [3]): not particularly reactive
- chemiluminescence in cell-free plasma (human neutrophils [3]): unreactive
- percent activation of twice-washed neutrophils by activator ([1]; no inhibitor, pancreatic homogenate 50 μl (Control group) or fMLP 10^-7 M (positive control)): 74%

Molecule: 1-O-alkyl-2-acetyl-sn-glycero-3-phosphocholine [PAF]
- superoxide chemiluminescence of isolated neutrophils alone (no plasma) (human neutrophils [3]): likewise unreactive
- chemiluminescence in cell-free plasma (human neutrophils [3]): unreactive

Molecule: chymotrypsin
- percent pseudopod formation, control solution incubated with the additive alone (no organ homogenate) [4]: 42%
- direct neutrophil activation by proteases / zymogen fragments (in words) [4]: did not result in neutrophil activation
- plasma chemiluminescence activation by pancreatic proteases (human neutrophils [3]): little activation

Molecule: N=C(N)c1ccccc1 [Benzamidine]
- percent neutrophil pseudopod formation (activation) by rat pancreatic homogenate in presence of protease inhibitor [1]: 41.5±24.6%

B1: trypsinogen: trypsin precursor from bovine pancreas (protein, UniProt P00760 18-246, looked up)
pro-form: VDDDDKIVGGYTCGANTVPYQVSLNSGYHFCGGSLINSQWVVSAAHCYKSGIQVRLGEDNINVVEGNEQFISASKSIVHPSYNSNTLNNDIMLIKLKSAASLNSRVASISLPTSCASAGTQCLISGWGNTKSSGTSYPDVLKCLKAPILSDSSCKSAYPGQITSNMFCAGYLEGGKDSCQGDSGGPVVCSGKLQGIVSWGSGCAQKNKPGVYTKVCNYVSWIKQTIASN
modifications: pro-form
notes: trypsin precursor from bovine pancreas
- direct neutrophil activation by proteases / zymogen fragments (in words) [4]: not stimulatory towards neutrophils

B2: trypsin: serine protease, Type 11-S from porcine pancreas (protein, UniProt P00761 9-231, looked up)
Trypsin: IVGGYTCAANSIPYQVSLNSGSHFCGGSLINSQWVVSAAHCYKSRIQVRLGEHNIDVLEGNEQFINAAKIITHPNFNGNTLDNDIMLIKLSSPATLNSRVATVSLPRSCAAAGTECLISGWGNTKSSGSSYPSLLQCLKAPVLSDSSCKSSYPGQITGNMICVGFLEGGKDSCQGDSGGPVVCNGQLQGIVSWGYGCAQKNKPGVYTKVCNYVNWIQQTIAAN
- percent pseudopod formation, control solution incubated with the additive alone (no organ homogenate) [4]: 8.5±0.8%
- direct neutrophil activation by proteases / zymogen fragments (in words) [4]: did not result in neutrophil activation
- plasma chemiluminescence activation by pancreatic proteases (human neutrophils [3]): little activation
